Earlier results on one molecule are cited in patent US20120035103A1 (priority 2010, published 2012).

For this data set, the system named is cells that line the nasal cavity.

Regarding `CCCCCCCCCCCCCCO[C@@H]1O[C@H](CO)[C@@H](O[C@H]2O[C@H](CO)[C@@H](O)[C@H](O)[C@H]2O)[C@H](O)[C@H]1O` [TDM, Tetradecyl-β-d-maltoside], where the note is “0.125% TDM”, the “Toxicity to the cells that line the nasal cavity” value is reported as “minimal toxicity”. In addition, the “Appearance of the cells that line the nasal cavity” value (0.50% TDM, versus 0.125% TDM) is “became more evident”.
